The values that follow come from patent US6362360B1, “3-aryl-2-hydroxypropionic acid derivative III” (AstraZeneca AB, priority 1998, dated 2002).

This data set concerns obese diabetic mice of the Umeå ob/ob strain. Nature of the data set: Biological activity in obese diabetic ob/ob mice (plasma glucose, insulin, triglycerides; weight gain). Type of data set: in vivo. As for the experimental part:
The biological activity of the compound of the invention was tested in obese diabetic mice of the Umeå ob/ob strain. Groups of mice received the test compound by gavage once daily for 7 days. On the last day of the experiment the animals were anesthetized 2 h after dose in a non-fed state and blood was collected from an incised artery. Plasma was analyzed for concentration of glucose, insulin and triglycerides. A group of untreated obese diabetic mice of the same age served as control. The weights of the mice were measured before and after the experiment and the obtained weight gains were compared to the weight gains of the control animals. The individual values for glucose, insulin and triglyceride levels of the mice from the test group were expressed as the percentage rage of the corresponding values from the control group. The desired “therapeutic effect” was calculated as the average percent reduction of the three variables glucose, insulin and triglycerides below the levels in the control animals. The therapeutic effect of the tested compounds according to the invention was compared to the same effect in the prior art compound troglitazone, administrered by gavage in the oral dose of 100 μmol/kg for 7 days.

`CCO[C@@H](Cc1ccc(OCCc2ccc(NC(=O)OC(C)(C)C)cc2)cc1)C(=O)O` [compound of the invention, 3-{4-[2-(4-tert-Butoxycarbonylaminophenyl)ethoxy]phenyl}-(S)-2-ethoxy propanoic acid]: the “therapeutic effect (average percent reduction of glucose, insulin and triglycerides below the levels in the control animals)” value (gavage once daily for 7 days, compared to troglitazone in the same oral dose (100 μmol/kg for 7 days)) was “superior effects”. For the setting “weights measured before and after the 7-day experiment, compared to control animals”, the weight gain entry is on record as “without undesirable weight gain”.
